Data taken from patent publication US9328138B2 (priority 2011, dated 2016).

Tests used:
[1] = target: HCV NS3 protease genotype 3a (3A-1) (Hepatitis C virus genotype 3a, UniProt Q81258); test: HCV NS3 protease time-resolved fluorescence (TRF) assay, genotype 3a; assay type: biochemical; conditions: Ki 3a
In short: (§1)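 IC50 values derive from 4-parameter fitting of TRF signal after a 6 h room-temperature cleavage of 25 nM peptide substrate by NS3/NS4A that had been pre-incubated 10 min with compound.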

[2] = target: T1, HCV genotype 1b (BK) NS3 modified enzyme with a R155K mutation (Hepatitis C virus genotype 1b, UniProt P26663, R1181K); test: HCV NS3 protease time-resolved fluorescence (TRF) assay, genotype 1b R155K; assay type: biochemical; conditions: Ki 1b R155K, genotype 1b (BK) NS3 R155K; single value
T1 construct: HCV genotype 1b (BK) NS3 modified enzyme
In short: as §1

Row | Structure (SMILES) | Ki [1] [pM] | Ki [2] [pM]
1 | C=C[C@@H]1C[C@]1(NC(=O)[C@@H]1C[C@@H]2CN1C(=O)[C@H](C1CCCCC1)NC(=O)O[C@@H]1C[C@H]1CCCCCc1c(nc3ccccc3c1OCCCN1CCC(S(C)(=O)=O)C1)O2)C(=O)NS(=O)(=O)C1(C)CC1 (stereo partly drawn) [Example 166, (1aR,5S,8S,10R,22aR)-5-cyclohexyl-N-[(1R,2S)-2-ethenyl-1-{[(1-methylcyclopropyl)sulfonyl]carbamoyl}cyclopropyl]-17-{3-[3-(methylsuflonyl)pyrrolidin-1-yl]propoxy}-3,6-dioxo-1,1a,3,4,5,9,10, 18,19,20,21,22,22a-tetradecahydro-8H-7,10-methanocyclopropa[18,19][1,10,3,6] dioxadiazacyclononadecino[11,12-b] quinoline-8-carboxamide] | 2200 | 110
2 | C=C[C@@H]1C[C@]1(NC(=O)[C@@H]1C[C@@H]2CN1C(=O)[C@H](C(C)(C)C)NC(=O)O[C@@H]1C[C@H]1CCCCCc1c(nc3ccccc3c1OCCCN(CC)CCc1nc3ccccc3[nH]1)O2)C(=O)NS(=O)(=O)C1(C)CC1 [Example 192, (1aR,5S,8S,10R,22aR)-17-(3-{[2-(1H-benzimidazol-2-yl)ethyl](ethyl)amino}propoxy)-5-tert-butyl-N-[(1R,2S)-2-ethenyl-1-{[(1-methylcyclopropyl)sulfonyl]carbamoyl}cyclopropyl]-3,6-dioxo-1,1a,3,4,5,6,9,10,18,19,20,21, 22,22a-tetradecahydro-8H-7,10-methanocyclopropa[18,19][1,10,3,6] dioxadiazacyclononadecino[11,12-b] quinoline-8-carboxamide] | 710 | 100
3 | C=C[C@@H]1C[C@]1(NC(=O)[C@@H]1C[C@@H]2CN1C(=O)[C@H](C(C)(C)C)NC(=O)O[C@@H]1CCC[C@H]1CC/C=C\Cc1c(nc3ccccc3c1OC)O2)C(=O)NS(=O)(=O)C1CC1 [Example 7, (3aR,7S,10S,12R,21Z,24aS)-7-tert-butyl-N-{(1R,2S)-1-[(cyclopropylsulfonyl)carbamoyl]-2-ethenylcyclopropyl}-19-methoxy-5,8-dioxo-1,2,3,3a,5,6,7,8,11,12,20,23,24,24a-tetradecahydro-10H-9,12-methanocyclopenta[18,19][1,10,3,6] dioxadiazacyclononadecino[11,12-b]quinoline-10-carboxamide] | 17000 | 760
4 | C=C[C@@H]1C[C@]1(NC(=O)[C@@H]1C[C@@H]2CN1C(=O)[C@H](C1CCCC1)NC(=O)O[C@@H]1C[C@H]1CCCCCc1c(nc3ccccc3c1OCCN1CCOCC1)O2)C(=O)NS(=O)(=O)C1(C)CC1 [Example 121, (1aR,5S,8S,10R,22aR)-5-cyclopentyl-N-[(1R,2S)-2-ethenyl-1-{[(1-methylcyclopropyl)sulfonyl]carbamoyl}cyclopropyl]-17-[2-(morpholin-4-yl)ethoxy]-3,6-dioxo-1,1a,3,4,5,6,9,10,18,19,20,21,22, 22a-tetradeca hydro-8H-7,10-methanocyclopropa[18,19][1,10,3,6] dioxadiazacyclononadecino [11,12-b]quinoline-8-carboxamide] | 12000 | 380
5 | C=C[C@@H]1C[C@]1(NC(=O)[C@@H]1C[C@@H]2CN1C(=O)[C@H](C(C)(C)C)NC(=O)O[C@@H]1C[C@H]1CCCCCc1c(nc3ccccc3c1OCCCN1CCCCC1)O2)C(=O)NS(=O)(=O)C1(C)CC1 [Example 115, (1aR,5S,8S,10R,22aR)-5-tert-butyl-N-[(1R,2S)-2-ethenyl-1-{[(1-methylcyclopropyl)sulfonyl]carbamoyl}cyclopropyl]-3,6-dioxo-17-[3-(piperidin-1-yl)propoxy]-1,1a,3,4,5,6,9,10,18,19,20,21,22,22a-tetradeca hydro-8H-7,10-methano cyclopropa[18,19][1,10,3,6] dioxadiazacyclononadecino [11,12-b]quinoline-8-carboxamide] | 250 | 57
6 | C=C[C@@H]1C[C@]1(NC(=O)[C@@H]1C[C@@H]2CN1C(=O)[C@H](C1CCCC1)NC(=O)O[C@@H]1CCC[C@H]1CC/C=C/Cc1c(nc3ccccc3c1OC(=O)CC(C)C)O2)C(=O)NS(=O)(=O)C1CC1 [Example 41, (3aR,7S,10S,12R,21E,24aS)-7-cyclopentyl-10-({(1R,2S)-1-[(cyclopropylsulfonyl)carbamoyl]-2-ethenylcyclopropyl}carbamoyl)-5,8-dioxo-1,2,3,3a,5,6,7,8,11,12,20,23,24,24a-tetradecahydro-10H-9,12-methanocyclopenta[18,19][1,10,3,6]dioxadiazacyclononadecino[11,12-b]quinolin-19-yl 3-methylbutanoate] | 73000 | 6600
7 | C=C[C@@H]1C[C@]1(NC(=O)[C@@H]1C[C@@H]2CN1C(=O)[C@H](C(C)(C)C)NC(=O)O[C@@H]1C[C@H]1CCCCCc1c(nc3ccccc3c1OC1CCN(C)CC1)O2)C(=O)NS(=O)(=O)C1(C)CC1 [Example 210, (1aR,5S,8S,10R,22aR)-5-tert-butyl-N-[(1R,2S)-2-ethenyl-1-{[(1-methylcyclopropyl)sulfonyl]carbamoyl}cyclopropyl]-17-[(1-methylpiperidin-4-yl)oxy]-3,6-dioxo-1,1a,3,4,5,6,9,10,18,19,20,21,22,22a-tetradecahydro-8H-7,10-methanocyclopropa[18,19][1,10,3,6]dioxadiazacyclononadecino[11,12-b]quinoline-8-carboxamide] | 290 | 46
8 | C=C[C@@H]1C[C@]1(NC(=O)[C@@H]1C[C@@H]2CN1C(=O)[C@H](C1CCCC1)NC(=O)O[C@@H]1CCC[C@H]1CC/C=C/Cc1c(nc3ccccc3c1OP(=O)(OCC)OCC)O2)C(=O)NS(=O)(=O)C1CC1 [Example 38, (3aR,7S,10S,12R,21E,24aS)-7-cyclopentyl-10-({(1R,2S)-1-[(cyclopropylsulfonyl)carbamoyl]-2-ethenylcyclopropyl}carbamoyl)-5,8-dioxo-1,2,3,3a,5,6,7,8,11,12,20,23,24,24a-tetradecahydro-10H-9,12-methanocyclopenta[18,19][1,10,3,6]dioxadiazacyclononadecino[11,12-b]quinolin-19-yl diethyl phosphate] | 94000 | 1200
9 | C=C[C@@H]1C[C@]1(NC(=O)[C@@H]1C[C@@H]2CN1C(=O)[C@H](C(C)(C)C)NC(=O)O[C@@H]1C[C@H]1CCCCCc1c(nc3ccccc3c1OCCCN1CCOCC1)O2)C(=O)NS(=O)(=O)C1(C)CC1 [Example 116, (1aR,5S,8S,10R,22aR)-5-tert-butyl-N-[(1R,2S)-2-ethenyl-1-{[(1-methylcyclopropyl)sulfonyl]carbamoyl}cyclopropyl]-17-[3-(morpholin-4-yl)propoxy]-3,6-dioxo-1,1a,3,4,5,6,9,10,18,19,20,21, 22,22a-tetradeca hydro-8H-7,10-methanocyclopropa [18,19][1,10,3,6]dioxadiazacyclo nonadecino[11,12-b]quinoline-8-carboxamide] | 1600 | 170
10 | C=C[C@@H]1C[C@]1(NC(=O)[C@@H]1C[C@@H]2CN1C(=O)[C@H](C(C)(C)C)NC(=O)O[C@@H]1CCC[C@H]1CC/C=C/Cc1c(nc3ccccc3c1OCCCN1CCCCC1)O2)C(=O)NS(=O)(=O)C1(C)CC1 [Example 59, (3aR,7S,10S,12R,21E,24aS)-7-tert-butyl-N-[(1R,2S)-2-ethenyl-1-{[(1-methylcyclopropyl)sulfonyl]carbamoyl}cyclopropyl]-5,8-dioxo-19-[3-(piperidin-1-yl)propoxy]-1,2,3,3a,5,6,7,8,11,12,20,23,24,24a-tetra decahydro-10H-9,12-methanocyclopenta[18,19][1,10,3,6] dioxadiazacyclononadecino[11,12-b] quinoline-10-carboxamide] | 450 | 110
11 | C=C[C@@H]1C[C@]1(NC(=O)[C@@H]1C[C@@H]2CN1C(=O)[C@H](C(C)(C)C)NC(=O)O[C@@H]1CCC[C@H]1CC/C=C/Cc1c(nc3ccccc3c1OCCCO)O2)C(=O)NS(=O)(=O)C1CC1 [Example 70, (3aR,7S,10S,12R,21E,24aS)-7-tert-butyl-N-{(1R,2S)-1-[(cyclopropylsulfonyl)carbamoyl]-2-ethenylcyclopropyl}-19-(3-hydroxypropoxy)-5,8-dioxo-1,2,3,3a,5,6,7,8,11,12,20,23,24,24a-tetradecahydro-10H-9,12-methanocyclopenta[18,19][1,10,3,6]dioxadiazacyclononadecino[11,12-b]quinoline-10-carboxamide] | 590 | 66
12 | C=C[C@@H]1C[C@]1(NC(=O)[C@@H]1C[C@@H]2CN1C(=O)[C@H](C(C)(C)C)NC(=O)O[C@@H]1C[C@H]1CCCCCc1c(nc3ccccc3c1OC1CCN(CCOC)CC1)O2)C(=O)NS(=O)(=O)C1(C)CC1 [Example 225, (1aR,5S,8S,10R,22aR)-5-tert-butyl-N-[(1R,2S)-2-ethenyl-1-{[(1-methylcyclopropyl)sulfonyl]carbamoyl}cyclopropyl]-17-{[1-(2-methoxyethyl)piperidin-4-yl]oxy}-3,6-dioxo-1,1a,3,4,5,6,9,10,18,19,20,21,22,22a-tetradecahydro-8H-7,10-methanocyclopropa[18,19][1,10,3,6]dioxadiazacyclononadecino[11,12-b]quinoline-8-carboxamide] | 600 | 79
13 | C=C[C@@H]1C[C@]1(NC(=O)[C@@H]1C[C@@H]2CN1C(=O)[C@H](C(C)(C)C)NC(=O)O[C@@H]1C[C@H]1CCCCCc1c(nc3c(OC)cccc3c1OCCCN1CC3(COC3)C1)O2)C(=O)NS(=O)(=O)C1(C)CC1 [Example 153, (1aR,5S,8S,10R,22aR)-5-tert-butyl-N-[(1R,2S)-2-ethenyl-1-{[(1-methylcyclopropyl)sulfonyl]carbamoyl}cyclopropyl]-13-methoxy-17-[3-(2-oxa-6-azaspiro[3.3]hept-6-yl)propoxy]-3,6-dioxo-1,1a, 3,4,5,6,9,10,18,19,20,21,22,22a-tetradeca hydro-8H-7,10-methanocyclopropa[18,19][1,10,3,6] dioxadiazacyclononadecino [11,12-b]quinoline-8-carboxamide] | 610 | 59
